In US10919856B2 (priority 2016, dated 2021):
Where a name gives a salt, the structure may show the parent alone.

Assays:
[1] = molecular target: influenza virus neuraminidase (wild-type) (Influenza A virus, UniProt Q9IGQ6); assay type: biochemical
[2] = tested on: influenza; conditions: in vivo; cited from earlier work

influenza virus neuraminidase (wild-type), sequence (Q9IGQ6 whole entry, looked up): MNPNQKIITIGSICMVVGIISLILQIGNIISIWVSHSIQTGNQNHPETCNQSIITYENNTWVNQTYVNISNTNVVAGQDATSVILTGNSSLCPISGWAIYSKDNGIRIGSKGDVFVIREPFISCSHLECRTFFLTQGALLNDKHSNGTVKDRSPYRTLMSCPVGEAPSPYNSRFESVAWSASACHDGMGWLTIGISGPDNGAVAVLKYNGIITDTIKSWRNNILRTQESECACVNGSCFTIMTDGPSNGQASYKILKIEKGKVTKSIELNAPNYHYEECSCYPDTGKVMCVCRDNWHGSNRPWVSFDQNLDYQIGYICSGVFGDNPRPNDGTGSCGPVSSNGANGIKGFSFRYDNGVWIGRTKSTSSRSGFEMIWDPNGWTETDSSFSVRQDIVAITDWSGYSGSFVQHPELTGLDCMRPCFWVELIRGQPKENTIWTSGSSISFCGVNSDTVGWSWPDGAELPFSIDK

SMILES: COCCO[C@@H]1CCCN([C@@H]2C=C(C(=O)O)C[C@H](N)[C@H]2NC(C)=O)C1 [Example 1, (3R,4R,5S)-4-acetamido-5-amino-3-((3S)-3-(2-methoxylethoxyl)piperidin)-1-cyclohexene-1-carboxylic acid trifluoroacetate]
- inhibiting activity on wild-type virus strains [1]: perfect inhibiting activities

SMILES: COCCO[C@@H]1CCCN([C@@H]2C=C(C(=O)O)C[C@H](NC(=N)N)[C@H]2NC(C)=O)C1 [Example 11, (3R,4R,5S)-4-acetamido-5-guanidino-3-((3S)-(2-methoxylethyoxyl)piperidin)-1-cyclohexene-1-carboxylic acid trifluoroacetate]
- inhibiting activity on wild-type virus strains [1]: perfect inhibiting activities

SMILES: CCOC(=O)C1=C[C@@H](OC(CC)CC)[C@H](NC(C)=O)[C@@H](N)C1.O=P(O)(O)O [Oseltamivir phosphate, ethyl (3R,4R,5S)-4-acetamido-5-amino-3-(1-ethylpropoxyl)-1-cyclohexene-1-carboxylate phosphate]
- reduction of severity level of influenza symptoms [2]: 40%
- shortening of the state of illness [2]: 3.1 days
